From the supplement of paper PMC10307832

Tests used:
Assay in all cases: relative viability (nuclei count vs DMSO), 5 days (fraction); higher = more cells survive
201T = system: 201T
Procedure, shortened: (§1)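 Medians of duplicate plates are given as relative viability. That measure is the nuclei count in treated wells divided by the count in vehicle wells. Counts were taken on 4× images of lung cancer cell lines in 1536-well plates, 5 days after pin-tool dosing the day after seeding with one drug alone or a fixed anchor-drug dose plus five library-drug doses (not always all listed) in √10 steps.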

COR-L 105 = system: COR-L 105
Procedure, shortened: as §1

COR-L23 = system: COR-L23
Procedure, shortened: as §1

EMC-BAC-2 = system: EMC-BAC-2
Procedure, shortened: as §1

HCC-15 = system: HCC-15
Procedure, shortened: as §1

HCC-366 = system: HCC-366
Procedure, shortened: as §1

LC-2-ad = system: LC-2-ad
Procedure, shortened: as §1

NCI-H1395 = system: NCI-H1395
Procedure, shortened: as §1

NCI-H1437 = system: NCI-H1437
Procedure, shortened: as §1

NCI-H1755 = system: NCI-H1755
Procedure, shortened: as §1

NCI-H1793 = system: NCI-H1793
Procedure, shortened: as §1

NCI-H1915 = system: NCI-H1915
Procedure, shortened: as §1

NCI-H2009 = system: NCI-H2009
Procedure, shortened: as §1

NCI-H2023 = system: NCI-H2023
Procedure, shortened: as §1

NCI-H2342 = system: NCI-H2342
Procedure, shortened: as §1

NCI-H2347 = system: NCI-H2347
Procedure, shortened: as §1

NCI-H23 = system: NCI-H23
Procedure, shortened: as §1

NCI-H358 = system: NCI-H358
Procedure, shortened: as §1

NCI-H650 = system: NCI-H650
Procedure, shortened: as §1

PC-14 = system: PC-14
Procedure, shortened: as §1

SK-MES-1 = system: SK-MES-1
Procedure, shortened: as §1

## Cc1cn(-c2cc(NC(=O)c3ccc(C)c(Nc4nccc(-c5cccnc5)n4)c3)cc(C(F)(F)F)c2)cn1 [Nilotinib] + O=C(CCCCCCC(=O)Nc1ccccc1)NO [Vorinostat] (partner 1 µM)
201T; first compound 0.001 µM
  relative viability: 0.931
201T; first compound 0.003162 µM
  relative viability: 1.19
201T; first compound 0.01 µM
  relative viability: 1.22
201T; first compound 0.1 µM
  relative viability: 0.28
COR-L 105; first compound 0.001 µM
  relative viability: 0.744
COR-L 105; first compound 0.003162 µM
  relative viability: 1.09
COR-L 105; first compound 0.01 µM
  relative viability: 0.81
COR-L 105; first compound 0.03162 µM
  relative viability: 0.76
COR-L 105; first compound 0.1 µM
  relative viability: 0.672
COR-L23; first compound 0.001 µM
  relative viability: 0.317
COR-L23; first compound 0.003162 µM
  relative viability: 0.347
COR-L23; first compound 0.01 µM
  relative viability: 0.406
COR-L23; first compound 0.03162 µM
  relative viability: 0.373
COR-L23; first compound 0.1 µM
  relative viability: 0.392
EMC-BAC-2; first compound 0.001 µM
  relative viability: 0.369
EMC-BAC-2; first compound 0.003162 µM
  relative viability: 0.339
EMC-BAC-2; first compound 0.01 µM
  relative viability: 0.429
EMC-BAC-2; first compound 0.03162 µM
  relative viability: 0.319
EMC-BAC-2; first compound 0.1 µM
  relative viability: 0.33
HCC-15; first compound 0.001 µM
  relative viability: 0.791
HCC-15; first compound 0.003162 µM
  relative viability: 0.913
HCC-15; first compound 0.01 µM
  relative viability: 0.936
HCC-15; first compound 0.03162 µM
  relative viability: 0.616
HCC-15; first compound 0.1 µM
  relative viability: 0.761
HCC-366; first compound 0.001 µM
  relative viability: 0.33
HCC-366; first compound 0.003162 µM
  relative viability: 0.361
HCC-366; first compound 0.01 µM
  relative viability: 0.364
HCC-366; first compound 0.03162 µM
  relative viability: 0.27
HCC-366; first compound 0.1 µM
  relative viability: 0.212
LC-2-ad; first compound 0.001 µM
  relative viability: 0.644
LC-2-ad; first compound 0.003162 µM
  relative viability: 0.851
LC-2-ad; first compound 0.01 µM
  relative viability: 0.772
LC-2-ad; first compound 0.03162 µM
  relative viability: 0.545
LC-2-ad; first compound 0.1 µM
  relative viability: 0.318
NCI-H1395; first compound 0.001 µM
  relative viability: 0.728
NCI-H1395; first compound 0.01 µM
  relative viability: 0.616
NCI-H1395; first compound 0.03162 µM
  relative viability: 0.59
NCI-H1395; first compound 0.1 µM
  relative viability: 0.473
NCI-H1437; first compound 0.001 µM
  relative viability: 0.664
NCI-H1437; first compound 0.003162 µM
  relative viability: 0.97
NCI-H1437; first compound 0.01 µM
  relative viability: 0.878
NCI-H1437; first compound 0.03162 µM
  relative viability: 0.506
NCI-H1437; first compound 0.1 µM
  relative viability: 0.583
NCI-H1755; first compound 0.001 µM
  relative viability: 0.605
NCI-H1755; first compound 0.003162 µM
  relative viability: 0.755
NCI-H1755; first compound 0.01 µM
  relative viability: 0.695
NCI-H1755; first compound 0.03162 µM
  relative viability: 0.59
NCI-H1755; first compound 0.1 µM
  relative viability: 0.595
NCI-H1793; first compound 0.001 µM
  relative viability: 0.64
NCI-H1793; first compound 0.003162 µM
  relative viability: 0.841
NCI-H1793; first compound 0.01 µM
  relative viability: 0.688
NCI-H1793; first compound 0.03162 µM
  relative viability: 0.386
NCI-H1793; first compound 0.1 µM
  relative viability: 0.257
NCI-H1915; first compound 0.001 µM
  relative viability: 0.454
NCI-H1915; first compound 0.003162 µM
  relative viability: 0.488
NCI-H1915; first compound 0.01 µM
  relative viability: 0.501
NCI-H1915; first compound 0.03162 µM
  relative viability: 0.385
NCI-H1915; first compound 0.1 µM
  relative viability: 0.299
NCI-H2009; first compound 0.001 µM
  relative viability: 0.607
NCI-H2009; first compound 0.003162 µM
  relative viability: 0.755
NCI-H2009; first compound 0.01 µM
  relative viability: 0.743
NCI-H2009; first compound 0.03162 µM
  relative viability: 0.579
NCI-H2009; first compound 0.1 µM
  relative viability: 0.46
NCI-H2023; first compound 0.001 µM
  relative viability: 0.469
NCI-H2023; first compound 0.003162 µM
  relative viability: 0.455
NCI-H2023; first compound 0.01 µM
  relative viability: 1.06
NCI-H2023; first compound 0.03162 µM
  relative viability: 0.41
NCI-H2023; first compound 0.1 µM
  relative viability: 0.174
NCI-H2342; first compound 0.001 µM
  relative viability: 0.675
NCI-H2342; first compound 0.003162 µM
  relative viability: 0.685
NCI-H2342; first compound 0.01 µM
  relative viability: 0.668
NCI-H2342; first compound 0.03162 µM
  relative viability: 0.681
NCI-H2342; first compound 0.1 µM
  relative viability: 0.655
NCI-H2347; first compound 0.001 µM
  relative viability: 0.601
NCI-H2347; first compound 0.003162 µM
  relative viability: 0.516
NCI-H2347; first compound 0.01 µM
  relative viability: 0.712
NCI-H2347; first compound 0.03162 µM
  relative viability: 0.495
NCI-H2347; first compound 0.1 µM
  relative viability: 0.431
NCI-H23; first compound 0.001 µM
  relative viability: 0.48
NCI-H23; first compound 0.003162 µM
  relative viability: 0.438
NCI-H23; first compound 0.01 µM
  relative viability: 0.685
NCI-H23; first compound 0.03162 µM
  relative viability: 0.239
NCI-H23; first compound 0.1 µM
  relative viability: 0.546
NCI-H358; first compound 0.001 µM
  relative viability: 0.601
NCI-H358; first compound 0.003162 µM
  relative viability: 0.747
NCI-H358; first compound 0.01 µM
  relative viability: 0.834
NCI-H358; first compound 0.03162 µM
  relative viability: 0.411
NCI-H358; first compound 0.1 µM
  relative viability: 0.424
NCI-H650; first compound 0.001 µM
  relative viability: 0.392
NCI-H650; first compound 0.003162 µM
  relative viability: 0.437
NCI-H650; first compound 0.01 µM
  relative viability: 0.445
NCI-H650; first compound 0.03162 µM
  relative viability: 0.407
NCI-H650; first compound 0.1 µM
  relative viability: 0.377
PC-14; first compound 0.001 µM
  relative viability: 0.594
PC-14; first compound 0.003162 µM
  relative viability: 0.378
PC-14; first compound 0.01 µM
  relative viability: 0.756
PC-14; first compound 0.03162 µM
  relative viability: 0.604
PC-14; first compound 0.1 µM
  relative viability: 0.156
SK-MES-1; first compound 0.001 µM
  relative viability: 1.12
SK-MES-1; first compound 0.003162 µM
  relative viability: 0.623
SK-MES-1; first compound 0.01 µM
  relative viability: 1.33
SK-MES-1; first compound 0.03162 µM
  relative viability: 0.936
SK-MES-1; first compound 0.1 µM
  relative viability: 0.618
